{"source": "patent US6469028B1", "about": "“Synthesis and use of retinoid compounds having negative hormone and/or anatgonist activities” (Allergan, Inc., priority 1995, dated 2002)", "key": {"[1]": {"test_system": "CaSki cells", "assay": "Example 18: proliferation of CaSki cells", "format": "cell-based", "procedure": "EGF was added to the retinoid treated cultures to give a final concentration of 20 ng/ml. […] The media was replaced with fresh media and each of the two retinoid compounds, as appropriate, every day. Cell numbers were determined using a COULTER counter as described above."}, "[2]": {"test_system": "MRP-8 expression in primary foreskin keratinocytes", "assay": "Example 20: MRP-8 expression in keratinocytes (RT-PCR)", "format": "cell-based, human", "conditions": "AGN 191183 10^−7 M or AGN 193109 10^−6 M, 3 days", "text": "Primary foreskin keratinocytes were isolated according to the procedure described by Nagpal et al. in J. Biol. Chem. 270:923 (1995) and cultured in keratinocyte growth medium (KGM) that was purchased from Clonetics. […] The mRNA was reverse transcribed into cDNA which then served as the template in a PCR amplification protocol using primers specific for either the glyceraldehyde phosphate dehydrogenase (GAPDH) housekeeping gene or MRP-8. The GAPDH primers had the sequences [NT] ID NO:6) and [NT] ID NO:7). The MRP-8 primers had the sequences [NT] ID NO:8) and [NT] ID NO:9). An aliquot from the MRP-8 amplification reaction (10 μl) was removed after every cycle of PCR amplification starting from 12 cycles and ending at 21 cycles. Similarly, an aliquot of the GAPDH amplification reaction was removed after every PCR cycle starting at 15 cycles and ending at 24 cycles. […] The staining intensity of the amplification products served as a quantitative measure of the amount of starting MRNA specific for the given primer set."}, "[3]": {"test_system": "hairless mice", "assay": "Example 2: skin irritation and weight loss by oral agonist, topical antagonist", "format": "in vivo", "conditions": "group B: oral AGN 191183 0.26 mg/kg/d alone, 4 days", "procedure": "Mice were simultaneously treated topically on the dorsal skin with vehicle (97.6% acetone/2.4% dimethylsulfoxide) or solutions of AGN 193109 in vehicle (6 ml/kg). Specific doses for the different treatment groups are give in Table 8. Treatments were administered daily for 4 consecutive days. Mice were weighed and graded for topical irritation daily as described in Example 1 up to and including 1 day after the last treatment. Percent body weight change is calculated by subtracting […], dividing by initial body weight, and multiplying by 100%. Topical irritation scores are calculated as described in Example 1."}, "[4]": {"test_system": "ECE16-1 cells", "assay": "Example 17: EGF dependent proliferation of ECE16-1 cells", "format": "cell-based", "conditions": "10 nM AGN 191183 and 0 nM AGN 193109, three days", "procedure": "ECE16-1 cells were seeded at a density of 1×10^4 cells per cm^2 in complete medium containing DMEM:F12 (3:1), nonessential amino acids, 5% FBS, 5 μg/ml transferring, 2 nM of 3,3′,5 triiodothyronine (thyroid hormone or “T3”), 0.1 nNM cholera toxin, 2 mM L-glutamine, 1.8×10^−4 M adenine and 10 ng/ml EGF. Cells were allowed to attach to plates overnight and then shifted to defined medium containing DMEM:F12 (3:1), 2 mM L-glutamine, nonessential amino acids, 0.1% bovine serum albumin, 1.8×10^−4 M adenine, 5 μg/ml transferring, 2 nM T3, 50 μg/ml ascorbic acid, 100 ug/ml streptomycin, 100 units/ml penicillin and 50 μg/ml gentamicin. Defined medium (DM) was supplemented with 10 ng/ml EGF. […] After three days of treatment, cells were harvested as described by Hembree et al. in Cancer Res. 54:3160 (1994) and cell numbers determined using a COULTER counter."}, "[5]": {"test_system": "guinea pigs", "assay": "Example 5: premature epiphyseal plate closure (bone toxicity)", "format": "in vivo", "conditions": "AGN 191183 0.06 mg/ml, intraperitoneal osmotic pump, 14 days, n=4", "procedure": "The osmotic pumps are designed by the manufacturer to deliver ˜5 μl of solution per hour continuously for 14 days.\nThe animals were euthanized by carbon dioxide asphyxiation 14 days after implantation. The left tibia was removed and placed in 10% buffered formalin. The tibias were decalcified by exposure to a formic acid/formalin solution for 3-4 days, and paraffin sections were prepared. Sections were stained with hematoxylin and eosin by standard methods. The proximal tibial epiphyseal plate was examined and scored as closed or not closed. Epiphyseal plate closure is defined for this purpose as any interruption of the continuity of the epiphyseal growth plate cartilage, i.e., replacement by bone and/or fibroblastic tissue."}, "[6]": {"test_system": "hairless mice", "assay": "Example 1: skin irritation by topical agonist, topical antagonist", "format": "in vivo", "conditions": "group B: AGN 191183 0.025 mg/kg/d topical alone, 5 days, scored to day 8, mean±SD", "procedure": "More particularly skin irritation was measured on a semiquantitative scale by the daily subjective evaluation of skin flaking and abrasions. A single number, the topical irritation score, summarizes the skin irritation induced in an animal during the course of an experiment. The topical irritation score is calculated as follows. The topical irritation score is the algebraic sum of a composite flaking score and a composite abrasion score. The composite scores range from 0-9 and 0-8 for flaking and abrasions, respectively, and take into account the maximum severity, the time of onset, and the average severity of the flaking and abrasions observed.\nThe severity of flaking is scored on a 5-point scale and the severity of abrasions is scored on a 4-point scale, with higher scores reflecting greater severity. The maximum severity component of the composite scores would be the highest daily severity score assigned to a given animal during the course of observation.\nFor the time of onset component of the composite score, a score ranging from 0 to 4 is assigned as follows:\nThe average severity component of the composite score is the sum of the daily flaking or abrasion scores divided by the number of observation days.\nTo calculate the composite flaking and abrasion scores, the average severity and time of onset scores are summed and divided by 2. The result is added to the maximal severity score. The composite flaking and abrasion scores are then summed to give the overall topical irritation score. Each animal receives a topical irritation score, and the values are expressed as the mean±SD of the individual scores of a group of animals. Values are rounded to the nearest integer.\nFemale hairless mice [Crl:SKH1-hrBR] […] Treatments are applied to the dorsal skin in a total volume of 4 ml/kg (˜0.1 ml). Mice were observed daily and scored for flaking and abrasions up to and including 3 days after the last treatment, i.e., day 8."}, "[7]": {"test_system": "stromelysin-1 expression in primary foreskin keratinocytes", "assay": "Example 21: stromelysin-1 expression in keratinocytes (RT-PCR)", "format": "cell-based, human", "conditions": "AGN 191183 10^−7 M or AGN 193109 10^−6 M, 24 hours", "procedure": "Total RNA prepared from mock-treated and retinoid-treated keratinocytes was reverse transcribed and the resulting cDNA was PCR amplified using β-actin or stromelysin-1 oligo primers exactly as described by Nagpal et al. in J. Biol. Chem. 270:923 (1995)), the disclosure of which has been incorporated by reference. A sample (10 μl) from the PCR amplification reaction was removed after every three cycles starting from 18 cycles of PCR amplification. The sample was electrophoresed on a 2% agarose gel and detected after ethidium bromide staining."}}}
{"smiles": "C/C(=C\\c1ccc(C(=O)O)cc1)c1ccc2c(c1)C(C)(C)CCC2(C)C", "note": "[AGN 191183, 4-[(E)-2-(5,6,7,8-tetrahydro-5,5,8,8-tetramethylnaphthalen-2-yl)propen-1-yl]benzoic acid, reference compound]", "values": [{"measurement": "antiproliferative activity", "setting": "[1]; AGN 191183 10^−10 to 10^−6 M, EGF 20 ng/ml, three days", "result": "no antiproliferative activity"}, {"measurement": "increase in the proliferation rate", "setting": "[1]; ten thousand fold increase in AGN 191183 concentration", "result": "~20", "unit": "%"}, {"measurement": "MRP-8 mRNA expression", "setting": "[2]", "result": "inhibited"}, {"measurement": "Topical Irritation Score", "setting": "[3]", "result": "8 ± 1"}, {"measurement": "% Weight Gain or (Loss)", "setting": "[3]; day 5 vs day 1, parentheses = loss", "result": "(21 ± 6) %"}, {"measurement": "EGF mediated proliferation", "setting": "[4]", "result": "completely inhibited EGF mediated proliferation"}, {"measurement": "epiphyseal plate closure", "setting": "[5]", "result": "All four of the AGN 191183-treated guinea pigs showed partial or complete epiphyseal plate closure"}, {"measurement": "Topical Irritation Score", "setting": "[6]", "result": "8 ± 2"}, {"measurement": "stromelysin-1 mRNA expression", "setting": "[7]", "result": "inhibited"}]}
